The target in assay [1] is Serine/threonine-protein kinase B-raf (Homo sapiens, UniProt P15056).
A further assay concerns the target T1, Ephrin type-B receptor 3 (Homo sapiens, UniProt P54753).
T1 sequence (P54753 whole entry): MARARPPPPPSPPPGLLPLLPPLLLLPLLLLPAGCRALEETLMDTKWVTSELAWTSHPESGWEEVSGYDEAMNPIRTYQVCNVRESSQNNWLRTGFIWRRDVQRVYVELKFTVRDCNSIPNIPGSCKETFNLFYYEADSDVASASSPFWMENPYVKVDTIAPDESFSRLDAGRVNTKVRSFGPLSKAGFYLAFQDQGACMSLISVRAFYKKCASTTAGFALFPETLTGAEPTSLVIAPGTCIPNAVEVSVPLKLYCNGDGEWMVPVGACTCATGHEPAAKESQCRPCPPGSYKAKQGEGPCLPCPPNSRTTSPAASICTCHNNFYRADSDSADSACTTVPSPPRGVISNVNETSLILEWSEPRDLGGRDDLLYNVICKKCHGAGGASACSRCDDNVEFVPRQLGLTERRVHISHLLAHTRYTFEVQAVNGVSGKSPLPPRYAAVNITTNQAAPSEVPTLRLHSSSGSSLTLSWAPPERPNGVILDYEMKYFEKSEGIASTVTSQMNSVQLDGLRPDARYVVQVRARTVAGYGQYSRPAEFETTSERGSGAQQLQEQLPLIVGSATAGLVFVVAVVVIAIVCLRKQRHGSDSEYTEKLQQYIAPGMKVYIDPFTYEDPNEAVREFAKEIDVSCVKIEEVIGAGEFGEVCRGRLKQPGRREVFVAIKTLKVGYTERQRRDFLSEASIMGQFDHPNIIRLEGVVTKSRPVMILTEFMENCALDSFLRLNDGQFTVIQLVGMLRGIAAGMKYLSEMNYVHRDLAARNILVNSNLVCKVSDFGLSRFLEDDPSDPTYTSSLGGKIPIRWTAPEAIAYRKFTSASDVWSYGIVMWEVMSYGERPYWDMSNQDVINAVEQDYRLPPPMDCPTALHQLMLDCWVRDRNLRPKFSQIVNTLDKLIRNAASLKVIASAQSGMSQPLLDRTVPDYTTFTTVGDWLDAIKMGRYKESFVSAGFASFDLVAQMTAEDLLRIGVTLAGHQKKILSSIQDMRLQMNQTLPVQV

The target in assay [2] is T2, Dual specificity mitogen-activated protein kinase kinase 3 (Homo sapiens, UniProt P46734).
T2 sequence (P46734 whole entry): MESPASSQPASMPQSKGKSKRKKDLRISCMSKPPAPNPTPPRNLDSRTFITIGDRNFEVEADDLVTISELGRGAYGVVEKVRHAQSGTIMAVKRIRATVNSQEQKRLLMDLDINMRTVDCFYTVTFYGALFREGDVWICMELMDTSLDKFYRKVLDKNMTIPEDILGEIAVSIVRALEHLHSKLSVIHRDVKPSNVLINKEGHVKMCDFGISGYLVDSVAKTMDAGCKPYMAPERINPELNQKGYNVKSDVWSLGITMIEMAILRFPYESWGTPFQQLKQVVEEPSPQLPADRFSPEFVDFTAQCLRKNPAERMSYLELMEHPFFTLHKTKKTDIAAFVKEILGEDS

For assay [3], the target named is T3, Bifunctional phosphoribosylaminoimidazole carboxylase/phosphoribosylaminoimidazole succinocarboxamide synthetase (Homo sapiens, UniProt P22234).
T3 sequence (P22234 whole entry): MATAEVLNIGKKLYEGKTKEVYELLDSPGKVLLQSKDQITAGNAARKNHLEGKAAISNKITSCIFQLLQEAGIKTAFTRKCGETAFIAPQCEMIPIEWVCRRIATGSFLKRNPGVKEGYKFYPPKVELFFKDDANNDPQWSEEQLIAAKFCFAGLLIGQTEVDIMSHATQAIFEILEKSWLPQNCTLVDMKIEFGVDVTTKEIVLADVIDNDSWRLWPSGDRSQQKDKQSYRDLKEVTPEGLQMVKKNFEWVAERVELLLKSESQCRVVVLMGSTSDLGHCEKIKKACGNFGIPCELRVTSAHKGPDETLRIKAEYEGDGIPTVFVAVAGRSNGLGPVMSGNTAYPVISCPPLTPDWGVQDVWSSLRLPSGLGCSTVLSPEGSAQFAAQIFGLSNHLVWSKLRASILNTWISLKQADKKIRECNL

Assay [4] concerns the target T4, Phosphatidylinositol 5-phosphate 4-kinase type-2 gamma (Homo sapiens, UniProt Q8TBX8).
T4 sequence (Q8TBX8 whole entry): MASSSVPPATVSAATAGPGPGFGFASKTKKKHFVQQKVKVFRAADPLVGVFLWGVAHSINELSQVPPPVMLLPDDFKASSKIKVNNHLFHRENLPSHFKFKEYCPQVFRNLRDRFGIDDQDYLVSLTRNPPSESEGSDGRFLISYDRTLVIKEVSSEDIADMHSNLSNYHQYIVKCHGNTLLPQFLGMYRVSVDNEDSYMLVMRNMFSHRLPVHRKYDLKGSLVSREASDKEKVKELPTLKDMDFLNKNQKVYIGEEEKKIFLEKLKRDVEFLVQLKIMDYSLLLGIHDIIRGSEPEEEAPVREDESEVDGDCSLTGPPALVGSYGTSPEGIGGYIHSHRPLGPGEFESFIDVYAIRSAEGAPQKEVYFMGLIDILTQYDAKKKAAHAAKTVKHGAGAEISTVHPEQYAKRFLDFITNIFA

Assay [5] concerns the target T5, Ras-related protein Rab-10 (Homo sapiens, UniProt P61026).
T5 sequence (P61026 whole entry): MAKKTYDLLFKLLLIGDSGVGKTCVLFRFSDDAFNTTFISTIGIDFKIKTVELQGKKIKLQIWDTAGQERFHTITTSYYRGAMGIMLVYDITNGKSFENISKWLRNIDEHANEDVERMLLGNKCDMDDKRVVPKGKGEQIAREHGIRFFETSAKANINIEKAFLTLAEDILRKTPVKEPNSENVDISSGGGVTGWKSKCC

Assay [6] concerns the target Ribosomal protein S6 kinase beta-1 (Homo sapiens, UniProt P23443).
The target in assay [7] is Structural maintenance of chromosomes protein 2 (Homo sapiens, UniProt O95347).
Assay [8] concerns the target RAC-gamma serine/threonine-protein kinase (Homo sapiens, UniProt Q9Y243).

Structures are written as SMILES. Active and inactive are the calls of the source. A value given as a limit tells only on which side of the number the result lay.
Note: in the data inactive means no Kd found up to 30 µM.

Chain of Serine/threonine-protein kinase B-raf (P15056 whole entry): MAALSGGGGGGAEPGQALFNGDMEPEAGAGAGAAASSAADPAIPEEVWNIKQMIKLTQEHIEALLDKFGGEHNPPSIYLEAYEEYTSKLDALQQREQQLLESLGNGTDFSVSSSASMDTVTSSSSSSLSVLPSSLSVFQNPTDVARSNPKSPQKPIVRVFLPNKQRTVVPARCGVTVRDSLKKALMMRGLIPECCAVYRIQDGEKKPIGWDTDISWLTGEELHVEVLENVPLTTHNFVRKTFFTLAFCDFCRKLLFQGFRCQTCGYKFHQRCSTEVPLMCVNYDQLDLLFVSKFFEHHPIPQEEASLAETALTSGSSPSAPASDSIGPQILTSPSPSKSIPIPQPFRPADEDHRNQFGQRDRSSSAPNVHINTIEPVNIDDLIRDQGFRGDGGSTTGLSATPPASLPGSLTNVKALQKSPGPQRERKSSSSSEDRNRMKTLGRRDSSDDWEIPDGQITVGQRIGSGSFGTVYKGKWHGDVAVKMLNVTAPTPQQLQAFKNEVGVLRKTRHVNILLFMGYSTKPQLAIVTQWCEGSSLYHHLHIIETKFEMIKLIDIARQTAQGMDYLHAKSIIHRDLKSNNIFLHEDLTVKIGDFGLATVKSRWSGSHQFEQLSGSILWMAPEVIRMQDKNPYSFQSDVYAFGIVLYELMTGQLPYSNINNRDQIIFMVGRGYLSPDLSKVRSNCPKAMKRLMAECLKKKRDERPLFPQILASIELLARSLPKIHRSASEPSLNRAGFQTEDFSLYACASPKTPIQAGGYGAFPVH
Chain of Structural maintenance of chromosomes protein 2 (O95347 whole entry): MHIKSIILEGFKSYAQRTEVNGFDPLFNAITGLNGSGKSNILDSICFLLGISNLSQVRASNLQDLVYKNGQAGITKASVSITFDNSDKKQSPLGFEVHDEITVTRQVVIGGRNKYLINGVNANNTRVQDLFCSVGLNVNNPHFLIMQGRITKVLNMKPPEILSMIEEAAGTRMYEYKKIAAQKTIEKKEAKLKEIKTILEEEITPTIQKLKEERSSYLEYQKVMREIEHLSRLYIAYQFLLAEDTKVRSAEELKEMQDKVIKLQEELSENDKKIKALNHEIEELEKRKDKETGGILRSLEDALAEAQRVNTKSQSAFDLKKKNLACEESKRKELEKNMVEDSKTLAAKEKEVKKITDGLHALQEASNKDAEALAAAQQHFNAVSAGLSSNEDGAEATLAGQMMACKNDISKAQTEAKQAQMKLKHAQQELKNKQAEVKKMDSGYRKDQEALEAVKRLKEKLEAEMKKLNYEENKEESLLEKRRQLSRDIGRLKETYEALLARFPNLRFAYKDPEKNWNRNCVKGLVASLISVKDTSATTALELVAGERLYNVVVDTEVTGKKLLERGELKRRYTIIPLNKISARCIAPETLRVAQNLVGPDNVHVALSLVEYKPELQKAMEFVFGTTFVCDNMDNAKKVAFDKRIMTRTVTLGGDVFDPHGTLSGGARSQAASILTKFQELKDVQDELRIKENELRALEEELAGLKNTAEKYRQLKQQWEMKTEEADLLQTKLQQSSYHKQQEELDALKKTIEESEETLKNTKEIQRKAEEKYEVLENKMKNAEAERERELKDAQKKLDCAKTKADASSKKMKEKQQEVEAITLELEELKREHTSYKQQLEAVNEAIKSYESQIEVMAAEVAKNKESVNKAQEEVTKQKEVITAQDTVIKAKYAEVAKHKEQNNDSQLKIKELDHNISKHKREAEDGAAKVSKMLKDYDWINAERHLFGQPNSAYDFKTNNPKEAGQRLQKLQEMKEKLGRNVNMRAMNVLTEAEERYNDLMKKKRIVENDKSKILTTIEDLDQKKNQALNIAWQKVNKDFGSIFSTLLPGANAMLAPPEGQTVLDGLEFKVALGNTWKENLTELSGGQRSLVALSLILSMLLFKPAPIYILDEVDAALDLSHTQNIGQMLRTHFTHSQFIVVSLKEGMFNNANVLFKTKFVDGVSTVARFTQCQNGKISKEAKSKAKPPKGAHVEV
Chain of RAC-gamma serine/threonine-protein kinase (Q9Y243 whole entry): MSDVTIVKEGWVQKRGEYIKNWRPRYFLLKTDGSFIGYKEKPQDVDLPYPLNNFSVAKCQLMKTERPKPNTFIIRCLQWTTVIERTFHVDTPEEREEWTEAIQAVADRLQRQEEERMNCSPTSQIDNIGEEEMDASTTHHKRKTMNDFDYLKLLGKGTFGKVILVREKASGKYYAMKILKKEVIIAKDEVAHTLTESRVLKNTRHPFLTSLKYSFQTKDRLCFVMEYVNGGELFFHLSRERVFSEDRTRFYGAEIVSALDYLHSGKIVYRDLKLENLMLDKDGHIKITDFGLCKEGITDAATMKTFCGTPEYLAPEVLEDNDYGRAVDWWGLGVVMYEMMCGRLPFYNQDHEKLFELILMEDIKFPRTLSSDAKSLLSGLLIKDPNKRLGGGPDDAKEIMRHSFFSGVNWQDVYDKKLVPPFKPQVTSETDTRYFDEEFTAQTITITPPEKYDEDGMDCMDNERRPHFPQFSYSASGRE
Chain of Ribosomal protein S6 kinase beta-1 (P23443 whole entry): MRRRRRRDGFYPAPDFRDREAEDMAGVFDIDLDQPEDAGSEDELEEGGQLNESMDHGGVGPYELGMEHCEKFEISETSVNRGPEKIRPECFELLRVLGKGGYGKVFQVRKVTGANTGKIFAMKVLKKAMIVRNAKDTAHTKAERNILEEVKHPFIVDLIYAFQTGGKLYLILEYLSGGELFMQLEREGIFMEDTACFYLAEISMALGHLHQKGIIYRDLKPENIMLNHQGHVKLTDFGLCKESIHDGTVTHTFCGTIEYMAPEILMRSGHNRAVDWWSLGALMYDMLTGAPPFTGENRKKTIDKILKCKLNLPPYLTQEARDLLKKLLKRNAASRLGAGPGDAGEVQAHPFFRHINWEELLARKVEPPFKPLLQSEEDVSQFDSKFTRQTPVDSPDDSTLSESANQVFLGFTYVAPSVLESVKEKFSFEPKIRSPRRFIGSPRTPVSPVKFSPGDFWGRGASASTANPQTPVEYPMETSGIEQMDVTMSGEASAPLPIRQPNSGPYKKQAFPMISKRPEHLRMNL

By Kd is commonly meant the concentration at which binding is half-saturated. `C[C@@H](Oc1cc(C(=O)Nc2ccc(C(=O)N3CCN(C)CC3)cc2)nnc1N)c1c(Cl)ccc(F)c1Cl`: the Kd (in assay [1]; on Ephrin type-B receptor 3; in assay [2]; in assay [3]; in assay [4]; in [5]) was > 30 µM (inactive) each time. For the same compound, the Kd in assay [6] and in [7] was > 30 µM (inactive) throughout.
For `C[C@H]1CNCCCN1S(=O)(=O)c1cccc2cncc(F)c12`, the Kd in assay [1] is > 30 µM (inactive); on Ephrin type-B receptor 3, > 30 µM (inactive); in [2], 3.08 µM (active); in assay [3], > 30 µM (inactive); in assay [4], > 30 µM (inactive); in [5] it was > 30 µM (inactive). The Kd in assay [6] and in [7] was > 30 µM (inactive) each time.
Regarding `CCNC(=O)C#Cc1ccc2c(c1)NC(=O)/C2=C(\Nc1ccc(CN(C)C)cc1)c1ccccc1`, the Kd (in [1]; on Ephrin type-B receptor 3; in assay [2]; in assay [3]; in assay [4]; in assay [5]) was > 30 µM (inactive) in each case. Moreover, the Kd in [6] and in assay [7] was > 30 µM (inactive) each time.
As to `C=CC(=O)N1CCC[C@H](n2c(=O)n(-c3ccc(Oc4ccccc4)cc3)c3c(N)ncnc32)C1`, the Kd (in assay [8]; in assay [1]; on Ephrin type-B receptor 3; in assay [2]; in assay [3]; in assay [4]) was > 30 µM (inactive) in each case. In addition, the Kd in assay [5], in assay [6] and in assay [7] was > 30 µM (inactive) each time.
Regarding `Cc1nc2cc(-c3nn(C(C)C)c4ncnc(N)c34)ccc2o1`, the Kd (in [8]; in assay [1]; at Ephrin type-B receptor 3; in [2]; in assay [3]; in [4]) was > 30 µM (inactive) throughout. In addition, the Kd in [5], in assay [6] and in [7] was > 30 µM (inactive) each time.
`Cc1nc(NC(=O)N2CCC[C@H]2C(N)=O)sc1-c1ccnc(C(C)(C)C(F)(F)F)c1` [ALPELISIB]: the Kd (in assay [8]; in assay [1]; on Ephrin type-B receptor 3; in assay [2]; in [3]; in assay [5]) was > 30 µM (inactive) in each case. For the same compound, the Kd in assay [6] and in assay [7] was > 30 µM (inactive) throughout.
`Cc1csc(-c2nnc(Nc3ccc(Oc4ncccc4-c4ccnc(N)n4)cc3)c3ccccc23)c1` [AMG-900]: the Kd in assay [8] was > 30 µM (inactive); in [1], 2.48 µM (active); on Ephrin type-B receptor 3, > 30 µM (inactive); in assay [2] it was > 30 µM (inactive); in assay [3], > 30 µM (inactive); in [5] it was > 30 µM (inactive). Also, the Kd in [6] and in assay [7] was > 30 µM (inactive) in each case.
Take `Cc1nc2cc(-n3ncc(C(=O)c4cc5ccccc5[nH]4)c3N)ccc2[nH]1` [FGFR INHIBITOR DEBIO 1347]: the Kd (in assay [8]; in assay [1]; on Ephrin type-B receptor 3; in assay [2]; in assay [3]; in assay [4]) was > 30 µM (inactive) in each case. For the same compound, the Kd in assay [5] and in [7] was > 30 µM (inactive) each time.
Turning to `CNC(=O)c1nn(C)c2c1C(C)(C)Cc1cnc(Nc3ccc(N4CCN(C)CC4)cc3)nc1-2` [MILCICLIB], the Kd in [8] was > 30 µM (inactive); in [1], > 30 µM (inactive); in assay [2], > 30 µM (inactive); in [3], > 30 µM (inactive); in assay [4], 1.43 µM (active); in assay [5], > 30 µM (inactive). Besides, the Kd in assay [6] and in assay [7] was > 30 µM (inactive) throughout.
For the compound `CCCCCCCCCCCCCCCCCCOP(=O)([O-])OC1CC[N+](C)(C)CC1` [PERIFOSINE], the Kd (in [8]; in assay [1]; on Ephrin type-B receptor 3; in [2]; in assay [3]; in [4]) was > 30 µM (inactive) throughout. For the same compound, the Kd in assay [5] and in assay [7] was > 30 µM (inactive) throughout.
Regarding `Cc1nc(Nc2n[nH]c3c2CN(C(=O)N[C@H](CN(C)C)c2ccccc2)C3(C)C)c2sccc2n1` [PF-03758309], the Kd (in [8]; in [1]; at Ephrin type-B receptor 3; in [2]; in [3]; in assay [4]) was > 30 µM (inactive) each time. Besides, the Kd in [5] and in assay [7] was > 30 µM (inactive) throughout.
Take `Cn1ncc(Cl)c1-c1cc(C(=O)N[C@H](CN)Cc2ccc(F)c(F)c2)oc1Cl` [UPROSERTIB]: the Kd (in [1]; at Ephrin type-B receptor 3; in assay [2]; in assay [3]; in [4]; in [5]) was > 30 µM (inactive) in each case. For the same compound, the Kd in [6] and in assay [7] was > 30 µM (inactive) throughout.
Take `C[C@@H](N)c1ccc(C(=O)Nc2ccnc3[nH]ccc23)cc1` [Y-39983]: the Kd (in [8]; in [1]; on Ephrin type-B receptor 3; in assay [2]; in assay [3]; in assay [4]) was > 30 µM (inactive) throughout. For the same compound, the Kd in assay [5] and in assay [7] was > 30 µM (inactive) in each case.

Values taken from ChEMBL document CHEMBL3991601, “The target landscape of clinical kinase drugs” (Science, 2017).
